# Data taken from publication PMC10644342, “Improved Antibacterial Activity of 1,3,4-Oxadiazole-Based Compounds That Restrict Staphylococcus aureus Growth Independent of LtaS Function” (ACS Infectious Diseases, 2023).
# Read-outs that look alike come from different tables or passages of the source.
# Key:
# [1] = test system: S. aureus; assay: Checkerboard MIC analysis with antistaphylococcal antibiotics (FIC index); type: cell-based; settings: lowest possible value
# Procedure: Antibiotic combination 1771 Compound 13
# Figure S1. Checkerboard analysis of 1771 and compound 13 in combination with clinically relevant antibiotics. Checkerboard analysis was repeated twice for each antibiotic combination, and the mean bacterial growth (OD 600nm) plotted as a heat map with 1771/compound 13 concentration of the y-axis and test antibiotic concentration on the x axis.
# FIC indexes were calculated for each combination and the lowest possible value presented. […]
# (§1) Supplementary Materials and Methods
# (§2) Synergistic activity with clinically relevant antibiotics
# (§3) The synergistic ability of 1771 and 13 was achieved using the chequerboard micro-broth dilution method. Antibiotic partners tested included: oxacillin, daptomycin, vancomycin, gentamicin, and linezolid with starting concentrations of 256 µg/ml, 8 µg/ml, 8 µg/ml, 4 µg/ml, and 8 µg/ml respectively. Overnight cultures were sub-cultured 1:200 in fresh MHB and grown to optical density of OD600nm of 0.5-0.6 and prepared according to the MIC analysis. Following an 18 h incubation at 37 °C the sum of the fractional inhibitory […]
# using the equation ΣFIC = FICA +FICB = (MICA in combination with B/MICA) + (MICB in combination with A/MICB). The resulting value was interpreted according to the following rules: synergistic (FIC ≤ 0.5), additive (FIC >0.5, <1) or indifferent (FIC ≥ 1 <4). […]
# [2] = test system: S. epidermidis; assay: MIC, broth microdilution (CLSI); type: cell-based, Staphylococcus epidermidis; settings: for MIC: read-out: minimum inhibitory concentration
# Procedure: (§4) S. aureus, S. epidermidis, E. faecalis, and E. faecium strains were routinely cultivated on tryptic soy agar (TSA) and grown for 18 h at 37 °C. S. aureus single colonies were subsequently transferred into 2 mL of tryptic soy broth (TSB) and grown for a further 18 h at 37 °C while being shaken at 180 rpm. S. pyogenes, S. agalactiae, and S. dysgalactiae strains were routinely cultured on TSA supplemented with 5% sheep blood and grown for 18 h at 37 °C with 5% CO2. E. coli was grown in LB broth at 37 °C. For LtaS-deficient strains, TSB was supplemented with 0.5 M NaCl to provide an osmotically balanced environment and instead grown at 30 °C. For strains harboring the pRMC2 tetracycline inducible vector,[61] the growth medium was supplemented with 10 μg/mL chloramphenicol and […] anhydrotetracycline hydrochloride (Sigma). Phenylalanine-arginine β-naphthylamide (PAβN) (Sigma) was dissolved in sterile water.
# (§5) B. subtilis, staphylococcal, and enterococcal strains were grown in Mueller Hinton broth (MHB), while streptococcal strains were grown in MHB supplemented with 5% laked horse blood. All strains were grown for 18 h at 37 °C. The overnight cultures were subsequently subcultured 1:200 and grown to the exponential phase (OD600nm = 0.5–0.6) in fresh broth. 1771 and its derivatives 9–14 were reconstituted in DMSO and further diluted by performing a 1:2 serial dilution ranging between 256 and 0.125 μg/mL in a 96-well microtiter plate. One hundred microliters of 0.5 McFarland standardized inoculum (approximately equal to 5 × 10^5 cfu) were then dispensed into each well in the 96-well microtiter plate. The plate was incubated for 18 h at 37 °C.
# [3] = test system: S. aureus; assay: MIC, broth microdilution (CLSI); type: cell-based, Staphylococcus aureus; settings: for MIC: read-out: minimum inhibitory concentration; for MIC50: used for selectivity index; for MIC range against S. aureus strains: collection of S. aureus strains incl. multidrug-resistant MRSA and VRSA
# Procedure: as §4, §5
# [4] = test system: LTA; parameters: method as in PMID 23401520; settings: cited from earlier work
# [5] = test system: LtaS; parameters: method as in PMID 29300473; settings: LtaS in artificial liposomes; cited from earlier work
# [6] = test system: E. coli strain K12; parameters: method as in PMID 23401520; settings: initial small-molecule library screen; cited from earlier work
# [7] = test system: S. aureus; parameters: method as in PMID 23401520; settings: incubation for 3–4 days; cited from earlier work
# [8] = test system: MRSA strains LAC and EMRSA-15; assay: Serial passage resistance study; type: cell-based, Staphylococcus aureus; settings: 25 days serial passage, after 14 days, then stable for 11 days
# Procedure: plotted against time following 18 hours of growth at 37 °C. The icons represent the mean of three biological replicates.
# as §1, §2, §3
# using the equation ΣFIC = FICA +FICB = (MICA in combination with B/MICA) + (MICB in combination with A/MICB). The resulting value was interpreted according to the following rules: synergistic (FIC ≤ 0.5), additive (FIC >0.5, <1) or indifferent (FIC ≥ 1 <4).
# Serial passage resistance study
# A serial passage in 1771 was performed using MRSA strains, LAC and EMRSA-15. For this assay, 15 ml tubes were filled with 3 ml of MHB and varying concentrations of 1771. The tubes containing either LAC or EMRSA-15 were incubated at 37 °C for 24 h before each passage. […]
# [9] = Staphylococcus epidermidis, strain 305
# [10] = Staphylococcus epidermidis, strain 311
# [11] = Staphylococcus epidermidis, strain 319
# [12] = Staphylococcus epidermidis, strain 322
# [13] = Staphylococcus epidermidis, strain 771
# [14] = Staphylococcus epidermidis, strain 780
# [15] = Staphylococcus epidermidis, strain RP62A
# [16] = Staphylococcus aureus, NEWMAN, strain Newman
# [17] = Staphylococcus aureus, strain EMRSA-15
# [18] = Staphylococcus aureus, strain LAC
# [19] = Staphylococcus aureus, strain MRSA252
# [20] = Staphylococcus aureus, strain MW2
# [21] = Staphylococcus aureus, strain Mu3
# [22] = Staphylococcus aureus, strain Mu50
# [23] = Staphylococcus aureus, strain SH1000
# [24] = Staphylococcus aureus, strain TW20
SMILES,FIC index ([1]; combination with daptomycin),FIC index ([1]; combination with gentamicin),FIC index ([1]; combination with linezolid),FIC index ([1]; combination with oxacillin),FIC index ([1]; combination with vancomycin),"MIC [2, 9]","MIC [2, 10]","MIC [2, 11]","MIC [2, 12]","MIC [2, 13]","MIC [2, 14]","MIC [2, 15]","MIC [3, 16]","MIC [3, 17]","MIC [3, 18]","MIC [3, 19]","MIC [3, 20]","MIC [3, 21]","MIC [3, 22]","MIC [3, 23]",further results
"O=C(COC(=O)Cc1coc2ccc3ccccc3c12)Nc1nnc(-c2ccc(S(F)(F)(F)(F)F)cc2)o1 [Compound 13, 2-Oxo-2-((5-(4-(pentafluoro-l6-sulfaneyl)phenyl)-1,3,4-oxadiazol-2-yl)amino)ethyl 2-(Naphtho[2,1-b]furan-1-yl)acetate]",0.75,0.75,0.515,0.75,1,0.5 to 1 mg/L,0.5 mg/L,1 mg/L,0.5 mg/L,0.5 mg/L,0.5 to 1 mg/L,0.5 mg/L,0.5 mg/L,0.5 mg/L,0.5 mg/L,1 mg/L,0.5 mg/L,0.5 mg/L,0.5 mg/L,0.5 mg/L,"MIC90 ([2]; Staphylococcus epidermidis): 1 mg/L; MIC [3, 24]: 0.5 mg/L; MIC90 ([3]; Staphylococcus aureus, against S. aureus): 0.5 mg/L; MIC50 ([3]; Staphylococcus aureus): 0.5 mg/L; MIC range against S. aureus strains [3]: 0.5 to 1 mg/L; fold increase in activity compared to 1771 ([3]; multidrug-resistant S. aureus strains): 16- to 32 fold"
"O=C(COC(=O)Cc1coc2ccc3ccccc3c12)Nc1nnc(-c2ccccc2)o1 [Compound 1771, 2-Oxo-2-((5-phenyl-1,3,4-oxadiazol-2-yl)amino)ethyl 2-(Naphtho[2,1-b]furan-1-yl)acetate, reference compound]",0.625,0.375,1,0.75,1,8 to 16 mg/L,8 to 16 mg/L,8 to 16 mg/L,16 mg/L,8 to 16 mg/L,8 to 16 mg/L,8 to 16 mg/L,4 to 8 mg/L,8 to 16 mg/L,8 mg/L,8 mg/L,8 mg/L,8 to 16 mg/L,4 to 8 mg/L,4 to 8 mg/L,"LTA signal [4]: dose-dependent reduction in the LTA signal; MIC range against S. epidermidis strains ([2]; collection of S. epidermidis strains): 8 to 16 mg/L; inhibition of LtaS polymerization activity [5]: did not show inhibitory activity; effect on the growth of Escherichia coli [6]: no effect on the growth; resistant mutant selection [7]: did not result in resistant mutant selection; MIC [3, 24]: 8 mg/L; MIC50 ([3]; Staphylococcus aureus): 8 mg/L; MIC range against S. aureus strains [3]: 4 to 16 mg/L; change of MIC on serial passage [8]: increased twofold"
